From US20140274688A1, “MOLECULES HAVING CERTAIN PESTICIDAL UTILITIES, AND INTERMEDIATES, COMPOSITIONS, AND PROCESSES RELATED THERETO” (DOW AGROSCIENCES LLC, priority 2013, published 2014)

How the values were obtained:
[1] = tested on: Cabbage Looper (Trichoplusia ni) ("CL"); experiment: Bioassay on Cabbage Looper (CL), 128-well diet tray assay, percent mortality; format: in vivo; conditions: for CL rating (percent mortality class): Cabbage Looper, 128-well diet tray assay; for pest or weed control at 50 µg/cm2: Trichoplusia ni, read-out: CL
Text: (§1) Bioassays on Beet Armyworm (Spodoptera exigua) (“BAW”) and Cabbage Looper (Trichoplusia ni) (“CL”)
(§2) BAW has few effective parasites, diseases, or predators to lower its population. BAW infests many weeds, trees, grasses, legumes, and field crops. In various places, it is of economic concern upon asparagus, cotton, corn, soybeans, tobacco, alfalfa, sugar beets, peppers, tomatoes, potatoes, onions, peas, sunflowers, and citrus, among other plants. The Cabbage Looper is a member of the moth family Noctuidae. It is found throughout the world. It is attacks cabbage, cauliflower, broccoli, Brussel sprouts, tomatoes, cucumbers, potatoes, kale, turnips, mustard, peppers, eggplant, watermelons, melons, squash, cantaloupe, peas, beans, collards, lettuce, spinach, celery, parsley, beets, peas, alfalfa, soybeans, and cotton. This species is very destructive to plants due to its voracious consumption of leaves. In the case of cabbage, however, they feed not only on the wrapper leaves, but also may bore into the developing head. The larvae consume three times their weight in plant material daily. The feeding sites are marked by large accumulations of sticky, wet fecal material.
(§3) Consequently, because of the above factors control of these pests is important.
(§4) Certain molecules disclosed in this document were tested against BAW and CEW using procedures described in the following examples. In the reporting of the results, the “BAW & CL Rating Table” was used (See Table Section).
Bioassays on Cabbage Looper in CL
(§5) Trays were covered with a clear self-adhesive cover and held at 25° C., 14:10 light-dark for five to seven days. Percent mortality was recorded for the larvae in each well; activity in the eight wells was then averaged. The results are indicated in the table entitled “Table ABC: Biological Results” (See Table Section).

[2] = tested on: Beet Armyworm (Spodoptera exigua) ("BAW"); experiment: Bioassay on Beet Armyworm (BAW), 128-well diet tray assay, percent mortality; format: in vivo; conditions: for BAW rating (percent mortality class): Beet Armyworm, 128-well diet tray assay; for pest or weed control at 50 µg/cm2: Spodoptera exigua, read-out: BAW
Text: as §1, §2, §3, §4, §5

SMILES | CL rating (percent mortality class) [1] | BAW rating (percent mortality class) [2] | pest or weed control at 50 µg/cm2 [1] [%] | pest or weed control at 50 µg/cm2 [2] [%]
CCc1ccc(C)cc1NC(=S)NC(=O)NC1CC1c1ccc(-c2ncn(-c3ccc(OC(F)(F)F)cc3)n2)cc1 (stereo not drawn) [F27, N-(2-ethyl-5-methylphenyl)-N′-[2-(4-{1-[4-(trifluoromethoxy)phenyl]-1H-1,2,4-triazol-3-yl}phenyl)cyclopropyl]dicarbonimidothioic diamide] | A (50-100) | A (50-100) |  | 
Cc1ccc(C(C)C)c(NC(=S)NC(=O)NC2CC2c2ccc(-c3ncn(-c4ccc(OC(F)(F)F)cc4)n3)cc2)c1 (stereo not drawn) [F28, N-[5-methyl-2-(propan-2-yl)phenyl]-N′-[2-(4-{1-[4-(trifluoromethoxy)phenyl]-1H-1,2,4-triazol-3-yl}phenyl)cyclopropyl]dicarbonimidothioic diamide] | A (50-100) | A (50-100) |  | 
CCCc1ccccc1N1C(=O)CS/C1=N\C(=O)NC1CC1c1ccc(-c2ncn(-c3ccc(OC(F)(F)F)cc3)n2)cc1 (stereo not drawn) [F30, (Z)-1-(4-oxo-3-(2-propylphenyl)thiazolidin-2-ylidene)-3-(2-(4-(1-(4-(trifluoromethoxy)phenyl)-1H-1,2,4-triazol-3-yl)phenyl)cyclopropyl)urea] | A (50-100) | A (50-100) |  | 
CCc1cccc(C)c1N1C(=O)CS/C1=N\C(=O)NC1CC1c1ccc(-c2ncn(-c3ccc(OC(F)(F)F)cc3)n2)cc1 (stereo not drawn) [F31, (Z)-1-(3-(2-ethyl-6-methylphenyl)-4-oxothiazolidin-2-ylidene)-3-(2-(4-(1-(4-(trifluoromethoxy)phenyl)-1H-1,2,4-triazol-3-yl)phenyl)cyclopropyl)urea] | A (50-100) | A (50-100) |  | 
Cc1cccc(C)c1N1C(=O)CS/C1=N\C(=O)NC1CC1c1ccc(-c2ncn(-c3ccc(OC(F)(F)F)cc3)n2)cc1 (stereo not drawn) [F32, (Z)-1-(3-(2,6-dimethylphenyl)-4-oxothiazolidin-2-ylidene)-3-(2-(4-(1-(4-(trifluoromethoxy)phenyl)-1H-1,2,4-triazol-3-yl)phenyl)cyclopropyl)urea] | A (50-100) | A (50-100) |  | 
CCc1ccc(C)cc1N1C(=O)CS/C1=N\C(=O)NC1CC1c1ccc(-c2ncn(-c3ccc(OC(F)(F)F)cc3)n2)cc1 (stereo not drawn) [F33, (Z)-1-(3-(2-ethyl-5-methylphenyl)-4-oxothiazolidin-2-ylidene)-3-(2-(4-(1-(4-(trifluoromethoxy)phenyl)-1H-1,2,4-triazol-3-yl)phenyl)cyclopropyl)urea] | A (50-100) | A (50-100) |  | 
Cc1ccc(C(C)C)c(N2CCS/C2=N\C(=O)NC2CC2c2ccc(-c3ncn(-c4ccc(OC(F)(F)F)cc4)n3)cc2)c1 (stereo not drawn) [F34, (Z)-1-(3-(2-isopropyl-5-methylphenyl)thiazolidin-2-ylidene)-3-(2-(4-(1-(4-(trifluoromethoxy)-phenyl)-1H-1,2,4-triazol-3-yl)phenyl)cyclopropyl)urea] | A (50-100) | A (50-100) |  | 
Cc1ccccc1N1C(=O)CS/C1=N\C(=O)NCc1ccc(-c2ncn(-c3ccc(OC(F)(F)F)cc3)n2)cc1 [P1, (Z)-1-(4-oxo-3-(o-tolyl)thiazolidin-2-ylidene)-3-(4-(1-(4-(trifluoromethoxy)phenyl)-1H-1,2,4-triazol-3-yl)benzyl)urea] |  |  | 50 to 100 | 50 to 100
CCc1ccccc1N1C(=O)CS/C1=N\C(=O)NCc1ccc(-c2ncn(-c3ccc(OC(F)(F)F)cc3)n2)cc1 [P2, (Z)-1-(3-(2-ethylphenyl)-4-oxothiazolidin-2-ylidene)-3-(4-(1-(4-(trifluoromethoxy)phenyl)-1H-1,2,4-triazol-3-yl)benzyl)urea] |  |  | 50 to 100 | 50 to 100
CC(C)c1cc(F)ccc1N1C(=O)CS/C1=N\C(=O)NCc1ccc(-c2ncn(-c3ccc(OC(F)(F)F)cc3)n2)cc1 [P3, (Z)-1-(3-(4-fluoro-2-isopropylphenyl)-4-oxothiazolidin-2-ylidene)-3-(4-(1-(4-(trifluoromethoxy)phenyl)-1H-1,2,4-triazol-3-yl)benzyl)urea] |  |  | 50 to 100 | 50 to 100
Cc1ccc(N2C(=O)CS/C2=N\C(=O)NCc2ccc(-c3ncn(-c4ccc(OC(F)(F)F)cc4)n3)cc2)c(C(C)C)c1 [P5, (Z)-1-(3-(2-isopropyl-4-methylphenyl)-4-oxothiazolidin-2-ylidene)-3-(4-(1-(4-(trifluoromethoxy)phenyl)-1H-1,2,4-triazol-3-yl)benzyl)urea] |  |  | 50 to 100 | 50 to 100
COc1ccc(N2C(=O)CS/C2=N\C(=O)NCc2ccc(-c3ncn(-c4ccc(OC(F)(F)F)cc4)n3)cc2)c(C)c1 [P6, (Z)-1-(3-(4-methoxy-2-methylphenyl)-4-oxothiazolidin-2-ylidene)-3-(4-(1-(4-(trifluoromethoxy)phenyl)-1H-1,2,4-triazol-3-yl)benzyl)urea] |  |  | 50 to 100 | 50 to 100
CCc1ccc(C)cc1N1C(=O)CS/C1=N\C(=O)NCc1ccc(-c2ncn(-c3ccc(OC(F)(F)F)cc3)n2)cc1 [P7, (Z)-1-(3-(2-ethyl-5-methylphenyl)-4-oxothiazolidin-2-ylidene)-3-(4-(1-(4-(trifluoromethoxy)phenyl)-1H-1,2,4-triazol-3-yl)benzyl)urea] |  |  | 50 to 100 | 50 to 100
CCCc1ccc(C)cc1N1C(=O)CS/C1=N\C(=O)NCc1ccc(-c2ncn(-c3ccc(OC(F)(F)F)cc3)n2)cc1 [P8, (Z)-1-(3-(5-methyl-2-propylphenyl)-4-oxothiazolidin-2-ylidene)-3-(4-(1-(4-(trifluoromethoxy)phenyl)-1H-1,2,4-triazol-3-yl)benzyl)urea] |  |  | 50 to 100 | 50 to 100
CC(C)c1ccccc1N1C(=O)CS/C1=N\C(=O)NCc1ccc(-c2ncn(-c3ccc(C(F)(F)F)cc3)n2)cc1 [P14, (Z)-1-(3-(2-isopropylphenyl)-4-oxothiazolidin-2-ylidene)-3-(4-(1-(4-(trifluoromethyl)phenyl)-1H-1,2,4-triazol-3-yl)benzyl)urea] |  |  | 50 to 100 | 50 to 100
Cc1ccc(N2C(=O)CS/C2=N\C(=O)NCc2ccc(-c3ncn(-c4ccc(C(F)(F)F)cc4)n3)cc2)c(C(C)C)c1 [P15, (Z)-1-(3-(2-isopropyl-4-methylphenyl)-4-oxothiazolidin-2-ylidene)-3-(4-(1-(4-(trifluoromethyl)phenyl)-1H-1,2,4-triazol-3-yl)benzyl)urea] |  |  | 50 to 100 | 50 to 100
Cc1ccc(C(C)C)c(N2/C(=N/C(=O)NCCc3ccc(-c4ncn(-c5ccc(OC(F)(F)F)cc5)n4)cc3)SCC2C)c1 (stereo not drawn) [P58, (Z)-1-(3-(2-isopropyl-5-methylphenyl)-4-methylthiazolidin-2-ylidene)-3-(4-(1-(4-(trifluoromethoxy)phenyl)-1H-1,2,4-triazol-3-yl)phenethyl)urea] |  |  | 50 to 100 | 50 to 100
Cc1ccc(C(C)C)c(N2CCCS/C2=N\C(=O)NCCc2ccc(-c3ncn(-c4ccc(OC(F)(F)F)cc4)n3)cc2)c1 [P59, (Z)-1-(3-(2-isopropyl-5-methylphenyl)-1,3-thiazinan-2-ylidene)-3-(4-(1-(4-(trifluoromethoxy)phenyl)-1H-1,2,4-triazol-3-yl)phenethyl)urea] |  |  | 50 to 100 | 50 to 100
